US11091501B2, “Heterocyclic compounds as RSV inhibitors” (Enanta Pharmaceuticals, Inc., priority 2017, dated 2021)
pEC50: −log10 of the molar value. Like-named read-outs stand apart in the source and are kept apart here.

Test system: Human RSV-A (“Long” strain)
Assay: RSV in vitro cytoprotection assay (CPE, ATPlite) in HEp-2 cells
Format: cell-based
Settings: human respiratory syncytial virus, read-out: Human RSV-A (“Long” strain) EC50
In short: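 HEp-2 cells (8,000/well) given 2-fold serial compound dilutions in duplicate, then infected with sucrose-stabilised RSV-A Long stock. After 4 days, cell viability read by ATPlite luminescence, with a parallel uninfected plate for cytotoxicity. EC50 binned A<0.01 μM, B 0.01-0.05 μM, C>0.05 μM.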

[1] = 96 h, HEp-2 cells, 4-day incubation, ATPlite readout

Compound	pEC50 (HEp-2, 96 h)	pEC50 [1]
Cc1ccc(C(=O)Nc2ccc(C(=O)N3CCc4cc(NC(=O)Oc5ccccc5)sc4-c4ccccc43)cc2)c(N2CC3(CCOCC3)C2)n1 [Example 302]	< 7.30	
O=C(Nc1ccc(C(=O)N2CCc3c(sc(C(=O)Nc4c(F)cccc4F)c3F)-c3ccccc32)cc1)c1cc2c(nc1N1CC3(CCOCC3)C1)CCC2 [Example 233]		> 8.00
Cc1cnc(N2CC3(CCOCC3)C2)c(C(=O)Nc2ccc(C(=O)N3CCc4cc(NC(=O)c5ccccc5)sc4-c4ccccc43)cc2)c1 [Example 284]		> 8.00
Cc1cnc(N2CC3(CCOCC3)C2)c(C(=O)Nc2ccc(C(=O)N3CCc4cc(-c5ccc(F)cn5)sc4-c4ccc(F)cc43)cc2)c1 [Example 163]		> 8.00
O=C(Nc1ccc(C(=O)N2CCc3c(sc(C(=O)Nc4c(F)cc(F)cc4F)c3F)-c3ccccc32)cc1)c1cccnc1N1CC2(CCOCC2)C1 [Example 89]		> 8.00
Cc1cnc(N2CC3(CCOCC3)C2)c(C(=O)Nc2ccc(C(=O)N3CCc4cc(C(=O)Nc5ccccc5F)sc4-c4ccc(F)cc43)cc2)c1 [Example 8]		> 8.00
O=C(Nc1c(F)cc(F)cc1F)c1cc2c(o1)-c1ccccc1N(C(=O)c1ccc(NC(=O)c3cc4c(nc3N3CC5(CCOCC5)C3)CCC4)cc1)CC2 [Example 253]		> 8.00
Cc1ccc(C(=O)Nc2ccc(C(=O)N3CCc4cc(NC(=O)OC5CCCCC5)sc4-c4ccccc43)cc2)c(N2CC3(CCOCC3)C2)n1 [Example 300]		< 7.30
O=C(Nc1ccc(C(=O)N2CCc3sc(-c4nc5ccccc5[nH]4)cc3-c3ccccc32)cc1)c1cc2c(nc1N1CC3(CCOCC3)C1)CCC2 [Example 264]		7.30 to 8.00
Cc1cnc(N2CC3(CCOCC3)C2)c(C(=O)Nc2ccc(C(=O)N3CCc4c(sc(C(=O)Nc5cccc(F)c5F)c4F)-c4ccccc43)cc2)c1 [Example 216]		> 8.00
Cc1cnc(N2CC3(CCOCC3)C2)c(C(=O)Nc2ccc(C(=O)N3CCc4c(sc(C(=O)Nc5cc(F)ccc5F)c4F)-c4ccccc43)cc2)c1 [Example 212]		7.30 to 8.00
Cc1cnc(N2CC3(CCOCC3)C2)c(C(=O)Nc2ccc(C(=O)N3CCc4c(sc(C(=O)Nc5c(C)cccc5C#N)c4F)-c4ccccc43)cc2)c1 [Example 204]		> 8.00
O=C(Nc1ccc(C(=O)N2CCc3cc(-c4nc5ccccc5[nH]4)oc3-c3ccc(F)cc32)cc1)c1cc2c(nc1N1CC3(CCOCC3)C1)CCCC2 [Example 245]		7.30 to 8.00
Cc1cnc(N2CC3(CCOCC3)C2)c(C(=O)Nc2ccc(C(=O)N3CCc4cc(-c5ncco5)sc4-c4ccc(F)cc43)cc2)c1 [Example 169]		> 8.00
O=C(Nc1c(F)cc(F)cc1Cl)c1cc2c(s1)-c1ccc(F)cc1N(C(=O)c1ccc(NC(=O)c3cc4ccccc4nc3N3CCS(=O)(=O)CC3)cc1)CC2 [Example 33]		< 7.30
O=C(Nc1c(F)cc(F)cc1Cl)c1cc2c(s1)-c1ccc(F)cc1N(C(=O)c1ccc(NC(=O)c3cc4ccccc4nc3N3C4CCC3COC4)cc1)CC2 [Example 32]		< 7.30
Cc1cnc(NC(=O)c2sc3c(c2F)CCN(C(=O)c2ccc(NC(=O)c4cc(C)cnc4N4CC5(CCOCC5)C4)cc2)c2ccccc2-3)c(F)c1 [Example 230]		> 8.00
O=C(Nc1c(F)cccc1Cl)c1cc2c(s1)-c1ccc(F)cc1N(C(=O)c1ccc(NC(=O)c3cc(F)cnc3N3CC4(CCOCC4)C3)cc1)CC2 [Example 37]		> 8.00
Cc1cnc(N2CC3(CCOCC3)C2)c(C(=O)Nc2ccc(C(=O)N3CCc4cc(C(=O)Nc5c(F)cc(F)cc5Cl)oc4-c4ccc(F)cc43)cc2)c1 [Example 235]		> 8.00
O=C(Nc1c(F)cc(F)cc1Cl)c1cc2c(s1)-c1ccc(F)cc1N(C(=O)c1ccc(NC(=O)c3cc4ccccc4nc3N3CC4(CCOCC4)C3)cc1)CC2 [Example 25]		7.30 to 8.00

Compound	pEC50 (HEp-2, 96 h)	pEC50 [1]
O=C(Nc1ccc(C(=O)N2CCc3c(sc(-c4nc5ccccc5[nH]4)c3F)-c3ccccc32)cc1)c1cccnc1N1CC2(CCOCC2)C1 [Example 92]		> 8.00
Cc1cnc(N2CC3(CCOCC3)C2)c(C(=O)Nc2ccc(C(=O)N3CCc4cc(-c5cc[nH]c(=O)c5)sc4-c4ccc(F)cc43)cc2)c1 [Example 183]		> 8.00
Cc1cnc(N2CC3(CCOCC3)C2)c(C(=O)Nc2ccc(C(=O)N3CCc4cc(NC(=O)OC(C)C)sc4-c4ccccc43)cc2)c1 [Example 297]		> 8.00
Cc1cnc(N2CC3(CCOCC3)C2)c(C(=O)Nc2ccc(C(=O)N3CCc4cc(-c5nc(C)c(C)[nH]5)sc4-c4ccc(F)cc43)cc2)c1 [Example 158]		> 8.00
Cc1cnc(N2CC3(CCOCC3)C2)c(C(=O)Nc2ccc(C(=O)N3CCc4c(sc(C(=O)Nc5ncc(C)s5)c4F)-c4ccccc43)cc2)c1 [Example 223]		7.30 to 8.00
O=C(Nc1ccc(C(=O)N2CCc3cc(-c4nc5cccc(F)c5[nH]4)sc3-c3ccc(F)cc32)cc1)c1cccnc1N1CC2(CCOCC2)C1 [Example 40]		7.30 to 8.00
Cc1cnc(N2CC3(CCOCC3)C2)c(C(=O)Nc2ccc(C(=O)N3CCc4cc(-c5cn(C)nc5N)sc4-c4ccc(F)cc43)cc2)c1 [Example 172]		> 8.00
O=C(Nc1c(F)cccc1F)c1cc2c(s1)-c1ccc(F)cc1N(C(=O)c1ccc(NC(=O)c3cc(F)cnc3N3CC4(CCOCC4)C3)cc1)CC2 [Example 35]		> 8.00
Cc1cnc(N2CC3(CCOCC3)C2)c(C(=O)Nc2ccc(C(=O)N3CCc4cc(C(=O)Nc5ncccc5Cl)sc4-c4ccc(F)cc43)cc2)c1 [Example 120]		> 8.00
Cc1cnc(N2CC3(CCOCC3)C2)c(C(=O)Nc2ccc(C(=O)N3CCc4cc(-c5c[nH]c6c(C)cccc56)sc4-c4ccc(F)cc43)cc2)c1 [Example 177]		7.30 to 8.00
Cc1cnc(N2CC3(CCOCC3)C2)c(C(=O)Nc2ccc(C(=O)N3CCc4c(sc(C(=O)Nc5c(F)cc(F)cc5Cl)c4F)-c4ccccc43)cc2)c1 [Example 199]		> 8.00
Cc1ccc(C(=O)Nc2ccc(C(=O)N3CCc4cc(C(=O)Nc5c(F)cccc5Cl)oc4-c4ccccc43)cc2)c(N2CC3(CCOCC3)C2)n1 [Example 259]		> 8.00
O=C(Nc1c(F)cccc1F)c1cc2c(s1)-c1cc(F)c(F)cc1N(C(=O)c1ccc(NC(=O)c3cc(F)cnc3N3CC4(CCOCC4)C3)cc1)CC2 [Example 73]		7.30 to 8.00
Cc1cnc(N2CC3(CCOCC3)C2)c(C(=O)Nc2ccc(C(=O)N3CCc4cc(C(=O)NC5CC(C)(C)OC(C)(C)C5)sc4-c4ccc(F)cc43)cc2)c1 [Example 121]		> 8.00
Cc1ccc(C(=O)Nc2ccc(C(=O)N3CCc4c(sc(NC(=O)c5c(Cl)cccc5Cl)c4F)-c4ccccc43)cc2)c(N2CC3(CCOCC3)C2)n1 [Example 310]		7.30 to 8.00
O=C(Nc1c(F)cccc1F)c1cc2c(s1)-c1ccc(F)cc1N(C(=O)c1ccc(NC(=O)c3cccnc3C3=CCOCC3)cc1)CC2 [Example 60]		< 7.30
Cc1cnc(N2CC3(CCOCC3)C2)c(C(=O)Nc2ccc(C(=O)N3CCc4cc(C(=O)Nc5c(F)cccc5C(F)(F)F)sc4-c4ccc(F)cc43)cc2)c1 [Example 5]		> 8.00
Cc1cnc(N2CC3(CCOCC3)C2)c(C(=O)Nc2ccc(C(=O)N3CCc4c(sc(C(=O)Nc5c(F)cccc5F)c4Cl)-c4ccccc43)cc2)c1 [Example 267]		> 8.00
O=C(Nc1c(F)cc(F)cc1Cl)c1cc2c(s1)-c1ccc(F)cc1N(C(=O)c1ccc(NC(=O)c3ccc(-c4cccs4)nc3N3CC4(CCOCC4)C3)cc1)CC2 [Example 27]		7.30 to 8.00
Cc1cnc(N2CC3(CCOCC3)C2)c(C(=O)Nc2ccc(C(=O)N3CCc4cc(C(=O)Nc5c(F)cccc5F)sc4-c4ccc(F)cc43)cc2)c1 [Example 12]		> 8.00
